Here are results for twelve compounds from patent US6706740B2, “Fungicidal heterocyclic aromatic amides and their compositions, methods of use and preparation” (Dow AgroSciences LLC, priority 1999, dated 2004).

Like-named read-outs stand apart in the source and are kept apart here.

The subject of one assay is Erysiphe graminis—ERYSGT. Briefly: Powdery Mildew of Wheat, in vivo whole plant, 24 Hour Protectant. The following applies: Erysiphe, read-out: ERYSGT in vivo 1 Day Protectant.
The test system of assay [1] is Rhizoctonia solani (RHIZSO). The assay can be described thus: microbe, parasite or virus in culture. Format: cell-based. To be noted: Rhizoctonia solani, read-out: RHIZSO in vitro Growth Inhibition.
In assay [2] the test system is Phytophthora infestans (PHYTIN). The assay can be described thus: microbe, parasite or virus in culture. Format: cell-based. To be noted: Phytophthora infestans, read-out: PHYTIN in vitro Growth Inhibition.
In assay [3] the test system is Puccinia recondita—PUCCRT. Briefly: Brown Rust of Wheat, in vivo whole plant, 24 Hour Protectant. To be noted: for pest or weed control at 100 ppm: Puccinia, control of fungal infection vs untreated plants, read-out: PUCCRT in vivo 1 Day Protectant.
Assay [4] concerns Leptosphaeria nodorum—LEPTNO. The assay can be described thus: Glume Blotch of Wheat, in vivo whole plant, 24 Hour Protectant. The following applies: for pest or weed control at 100 ppm: Leptosphaeria, control of fungal infection vs untreated plants, read-out: LEPTNO in vivo 1 Day Protectant.
Assay [5] deals with Mycosphaerella graminicola (Septoria tritici—SEPTTR). Briefly: In vitro fungal growth inhibition, Mycosphaerella graminicola (SEPTTR). To be noted: Zymoseptoria tritici, read-out: SEPTTR in vitro Growth Inhibition. It is filed as cell-based.
A further assay has as its system Ustilago maydis (USTIMA). Briefly: microbe, parasite or virus in culture. It is filed as cell-based. The following applies: Mycosarcoma maydis, read-out: USTIMA in vitro Growth Inhibition.
For assay [6], the system named is Magnaporthe grisea (Pyricularia oryzae—PYRIOR). Briefly: microbe, parasite or virus in culture. It is filed as cell-based. To be noted: Pyricularia oryzae, read-out: PYRIOR in vitro Growth Inhibition.
Assay [7] has as its system Phytophthora infestans—PHYTIN. Briefly: whole plant or invertebrate. It is filed as in vivo. To be noted: Phytophthora, in Solanum lycopersicum, 24 h, read-out: PHYTIN in vivo 1 Day Protectant.
Assay [8] relates to Stagonospora nodorum (Leptosphaeria nodorum—LEPTNO). The assay can be described thus: In vitro fungal growth inhibition, Stagonospora nodorum (LEPTNO). Format: cell-based. The following applies: Leptosphaeria, read-out: LEPTNO in vitro Growth Inhibition.
A further assay deals with Septoria tritici—SEPTTR. The assay can be described thus: Leaf Blotch of Wheat, in vivo whole plant, 24 Hour Protectant. The following applies: for pest or weed control at 100 ppm: Zymoseptoria tritici, 24 h, control of fungal infection vs untreated plants, read-out: SEPTTR in vivo 1 Day Protectant.
Where [9] appears, read: wheat plants sprayed at 100 ppm, inoculated after 24 hours, control of fungal infection vs untreated plants.
The mark [10] stands for this setting: wheat plants sprayed at 100 ppm, inoculated after 24 hours.
The mark [11] stands for this setting: 100 ppm spray, 24 hour protectant, wheat, control of fungal infection vs untreated plants.
[12] abbreviates: 100 ppm spray, 24 hour protectant, wheat.
Where [13] appears, read: 100 ppm spray, wheat, 24 hour protectant, control of fungal infection vs untreated plants.
Where [14] appears, read: 100 ppm spray, wheat, 24 hour protectant.

As usually defined, the inhibition is how much of the control response was suppressed.

`CC(C)C(=O)O[C@H]1[C@H](C)OC(=O)[C@@H](NC(=O)c2nnc(O)nc2O)COC(=O)[C@@H]1Cc1ccccc1` [Compound 544]: the pest or weed control at 100 ppm in the assay on Erysiphe graminis—ERYSGT (setting [9]) was less than 25%; in [3] (setting [10]), 25 to 74%; in [4] (setting [10]) it was 25 to 74%; in assay [7], less than 25%; in the assay with Septoria tritici—SEPTTR (setting [10]), 25 to 74%. Also, the inhibition at 25 ppm (in [1]; in assay [2]; in assay [5] (25 ppm in the growth medium); with Ustilago maydis (USTIMA); in assay [6]; in [8] (25 ppm in the growth medium)) was less than 80% each time.

For the compound `COc1ccnc(C(=O)NC2CC(C)(C)C=CC(C)C2C)c1O` (stereo not drawn) [Compound 279], the pest or weed control at 100 ppm in the assay on Erysiphe graminis—ERYSGT (setting [11]) is 25 to 74%; in [3] (setting [12]), less than 25%; in assay [4] (setting [12]) it was 25 to 74%; in assay [7] it was 25 to 74%; in the assay with Septoria tritici—SEPTTR (setting [12]), 25 to 74%. In addition, the inhibition at 25 ppm in assay [1] is less than 80%; in assay [2] it was greater than 80%; in assay [5] (25 ppm in growth medium) it was greater than 80%; with Ustilago maydis (USTIMA), less than 80%; in [6], less than 80%; in assay [8] (25 ppm in growth medium) it was greater than 80%.

In the case of `COc1ccnc(C(=O)N[C@H]2COC(=O)[C@H](Cc3ccccc3)[C@@H](OC(=O)C(C)C)[C@H](C)OC2=O)c1OC(=O)CCc1ccccc1` [Compound 650], the pest or weed control at 100 ppm (in the assay on Erysiphe graminis—ERYSGT (24 h); in [7]) was less than 25% in each case. For the same compound, the inhibition at 25 ppm in assay [1] was less than 80%; in assay [2] it was less than 80%; in [5], less than 80%; with Ustilago maydis (USTIMA) it was less than 80%; in assay [6] it was greater than 80%; in [8], greater than 80%. Further, in assay [3] (in vivo), the “PUCCRT in vivo 1 Day Protectant” value is recorded as “+ +”. Moreover, the “LEPTNO in vivo 1 Day Protectant” value in assay [4] (in vivo) is “+ +”. Moreover, in the assay with Septoria tritici—SEPTTR (in vivo), the “SEPTTR in vivo 1 Day Protectant” value is on record as “+ +”.

`COC(=O)C(COC(=O)CCc1ccccc1)NC(=O)c1nccc(OC)c1O` (stereo not drawn) [Compound 344]: the pest or weed control at 100 ppm with Erysiphe graminis—ERYSGT (setting [13]) is less than 25%; in assay [3] (setting [14]), less than 25%; in assay [4] (setting [14]), 25 to 74%; in assay [7] it was less than 25%; in the assay on Septoria tritici—SEPTTR (setting [14]), 25 to 74%. Moreover, the inhibition at 25 ppm in assay [1] was less than 80%; in [2] it was less than 80%; in assay [5] (25 ppm in growth medium) it was less than 80%; in the assay with Ustilago maydis (USTIMA), less than 80%; in assay [6] it was less than 80%; in assay [8] (25 ppm in growth medium), greater than 80%.

As to `COC(=O)C(COC(=O)C(C)c1ccccc1)NC(=O)c1nccc(OC)c1OC(C)=O` (stereo not drawn) [Compound 581], the pest or weed control at 100 ppm in the assay on Erysiphe graminis—ERYSGT (setting [9]) is less than 25%; in [3] (setting [10]), less than 25%; in [4] (setting [10]) it was 25 to 74%; in assay [7], less than 25%; in the assay with Septoria tritici—SEPTTR (setting [10]), 25 to 74%. Further, the inhibition at 25 ppm (in assay [1]; in assay [2]; in assay [5] (25 ppm in the growth medium); in the assay with Ustilago maydis (USTIMA); in [6]; in assay [8] (25 ppm in the growth medium)) was less than 80% each time.

As to `COc1ccnc(C(=O)NC2CC(C)(C)CC(C)(C3CC3)C2)c1O` (stereo not drawn) [Compound 252], the pest or weed control at 100 ppm in the assay on Erysiphe graminis—ERYSGT (setting [11]) is less than 25%; in [3] (setting [12]) it was 25 to 74%; in assay [4] (setting [12]), 25 to 74%; in assay [7], 25 to 74%; in the assay on Septoria tritici—SEPTTR (setting [12]), 25 to 74%. For the same compound, the inhibition at 25 ppm was greater than 80% in assay [1]; greater than 80% in [2]; greater than 80% in assay [5] (25 ppm in growth medium); less than 80% in the assay with Ustilago maydis (USTIMA); greater than 80% in assay [6]; greater than 80% in assay [8] (25 ppm in growth medium).

Consider `COc1ccnc(C(=O)Nc2ccc(Oc3cccc(C)c3)cc2)c1O` [Compound 416], for which the pest or weed control at 100 ppm in the assay on Erysiphe graminis—ERYSGT (setting [13]) is less than 25%; in assay [3] (setting [14]), 25 to 74%; in assay [4] (setting [14]), less than 25%; in [7], less than 25%; in the assay on Septoria tritici—SEPTTR (setting [14]), less than 25%. The inhibition at 25 ppm in assay [1] was less than 80%; in [2], less than 80%; in assay [5] (25 ppm in growth medium) it was greater than 80%; with Ustilago maydis (USTIMA), less than 80%; in assay [6], greater than 80%; in assay [8] (25 ppm in growth medium) it was less than 80%.

For `CC1(C)CC(NC(=O)c2ncccc2O)CC(C)(C2CC2)C1` (stereo not drawn) [Compound 204], the pest or weed control at 100 ppm is less than 25% with Erysiphe graminis—ERYSGT (setting [11]); less than 25% in assay [3] (setting [12]); less than 25% in assay [4] (setting [12]); less than 25% in assay [7]; 25 to 74% in the assay on Septoria tritici—SEPTTR (setting [12]). For the same compound, the inhibition at 25 ppm (in assay [1]; in [2]; in assay [5] (25 ppm in growth medium); with Ustilago maydis (USTIMA); in assay [6]; in [8] (25 ppm in growth medium)) was less than 80% throughout.

Take `COc1ccnc(C(=O)Nc2ccccc2Oc2ccc(C)cc2)c1O` [Compound 411]: the pest or weed control at 100 ppm (in the assay with Erysiphe graminis—ERYSGT (setting [13]); in assay [3] (setting [14]); in assay [4] (setting [14]); in assay [7]; in the assay with Septoria tritici—SEPTTR (setting [14])) was less than 25% each time. In addition, the inhibition at 25 ppm in assay [1] is less than 80%; in [2], less than 80%; in assay [5] (25 ppm in growth medium), greater than 80%; in the assay with Ustilago maydis (USTIMA) it was less than 80%; in [6] it was less than 80%; in [8] (25 ppm in growth medium) it was greater than 80%.

Take `COc1ccnc(C(=O)Nc2ccc(Oc3ccccc3C#N)cc2)c1O` [Compound 420]: the pest or weed control at 100 ppm with Erysiphe graminis—ERYSGT (setting [13]) was less than 25%; in assay [3] (setting [14]), less than 25%; in assay [4] (setting [14]) it was 25 to 74%; in assay [7], less than 25%; with Septoria tritici—SEPTTR (setting [14]) it was less than 25%. In addition, the inhibition at 25 ppm (in [1]; in assay [2]; in assay [5] (25 ppm in growth medium); with Ustilago maydis (USTIMA); in assay [6]; in [8] (25 ppm in growth medium)) was less than 80% in each case.

For the compound `COc1ccnc(C(=O)N[C@@H](CO)C(=O)O[C@@H](C)[C@H](OC(=O)C(C)C)[C@@H](Cc2ccccc2)C(=O)O)c1O` [Compound 341], the pest or weed control at 100 ppm in the assay on Erysiphe graminis—ERYSGT (setting [13]) was less than 25%; in [3] (setting [14]), less than 25%; in assay [4] (setting [14]), less than 25%; in assay [7] it was less than 25%; in the assay on Septoria tritici—SEPTTR (setting [14]), 25 to 74%. Moreover, the inhibition at 25 ppm (in assay [1]; in assay [2]; in assay [5] (25 ppm in growth medium); in the assay with Ustilago maydis (USTIMA); in [6]; in assay [8] (25 ppm in growth medium)) was less than 80% in each case.

`COc1ccc(CNC(=O)c2nc(Br)ccc2O)cc1` [Compound 482]: the pest or weed control at 100 ppm in the assay with Erysiphe graminis—ERYSGT (setting [9]) is less than 25%; in [3] (setting [10]), less than 25%; in [4] (setting [10]), 25 to 74%; in [7], less than 25%; in the assay with Septoria tritici—SEPTTR (setting [10]) it was 25 to 74%. Moreover, the inhibition at 25 ppm (in [1]; in [2]; in [5] (25 ppm in the growth medium); in the assay on Ustilago maydis (USTIMA); in [6]; in assay [8] (25 ppm in the growth medium)) was less than 80% in each case.
